Assays:
[1] = target: T1, Prostaglandin G/H synthase 1 (Bos taurus, UniProt O62664); assay: Inhibition of bovine COX1-mediated prostaglandin biosynthesis using [1-14C]arachidonic acid
T1 sequence (O62664 whole entry): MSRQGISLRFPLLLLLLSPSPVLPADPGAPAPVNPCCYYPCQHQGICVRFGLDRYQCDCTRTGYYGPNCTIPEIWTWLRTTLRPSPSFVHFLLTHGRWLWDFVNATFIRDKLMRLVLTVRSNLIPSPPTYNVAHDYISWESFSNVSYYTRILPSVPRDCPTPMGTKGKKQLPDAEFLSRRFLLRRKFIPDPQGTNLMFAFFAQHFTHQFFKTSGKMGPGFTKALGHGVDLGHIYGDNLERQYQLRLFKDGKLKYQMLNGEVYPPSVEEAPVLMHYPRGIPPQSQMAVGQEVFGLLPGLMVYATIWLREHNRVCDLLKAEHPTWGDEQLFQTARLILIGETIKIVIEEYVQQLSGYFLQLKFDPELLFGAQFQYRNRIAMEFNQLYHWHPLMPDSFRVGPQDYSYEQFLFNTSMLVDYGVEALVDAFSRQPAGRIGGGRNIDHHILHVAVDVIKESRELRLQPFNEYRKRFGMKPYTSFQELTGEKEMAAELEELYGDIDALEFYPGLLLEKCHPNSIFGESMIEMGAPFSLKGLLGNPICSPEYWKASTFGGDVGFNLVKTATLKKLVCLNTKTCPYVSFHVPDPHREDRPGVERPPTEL

[2] = target: T2, Prostaglandin G/H synthase 2 (Ovis aries, UniProt P79208); assay: Inhibition of sheep COX2-mediated prostaglandin biosynthesis using [1-14C]arachidonic acid
T2 sequence (P79208 whole entry): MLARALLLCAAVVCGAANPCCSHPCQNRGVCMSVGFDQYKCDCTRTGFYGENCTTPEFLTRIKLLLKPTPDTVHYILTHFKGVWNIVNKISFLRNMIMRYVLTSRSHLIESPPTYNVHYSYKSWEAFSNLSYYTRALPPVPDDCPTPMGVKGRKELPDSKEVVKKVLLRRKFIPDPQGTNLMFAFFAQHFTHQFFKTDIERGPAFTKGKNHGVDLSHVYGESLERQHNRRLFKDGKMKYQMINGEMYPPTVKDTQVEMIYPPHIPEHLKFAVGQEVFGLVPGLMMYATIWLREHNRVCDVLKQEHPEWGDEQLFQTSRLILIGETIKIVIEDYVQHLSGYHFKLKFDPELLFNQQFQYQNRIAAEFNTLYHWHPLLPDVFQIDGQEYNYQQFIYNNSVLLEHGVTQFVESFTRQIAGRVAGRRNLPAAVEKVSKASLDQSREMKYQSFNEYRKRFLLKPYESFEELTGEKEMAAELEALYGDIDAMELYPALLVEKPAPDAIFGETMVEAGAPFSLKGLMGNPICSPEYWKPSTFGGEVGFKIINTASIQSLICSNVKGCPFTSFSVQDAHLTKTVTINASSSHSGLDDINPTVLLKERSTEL

[3] = Selectivity ratio for IC50 for sheep COX2 to IC50 for […]

Compound | IC50 [1] [µM] | IC50 [2] [µM] | Ratio IC50 [3]
CC/C=C\C/C=C\C/C=C\C/C=C\CCOCC(=O)O | > 500 | > 500 | –
CCCCCCCCCCCCCC(=O)O [MYRISTIC ACID] | > 500 | > 500 | –
CC/C=C\C/C=C\C/C=C\C/C=C\CC/C=C/COCC(=O)O | 50 | 180 | 3.6
CC/C=C\C/C=C\C/C=C\CC/C=C/COCC(=O)O | > 500 | > 500 | –
CCCCCCCCCCCCCCC(=O)O [PENTADECANOIC ACID] | > 500 | > 500 | –
CCCCCCCCCCCCCCCCCC(=O)O [STEARIC ACID] | > 500 | > 500 | –
CC/C=C\C/C=C\C/C=C\CCCCCCCC(=O)O [LINOLENIC ACID] | 93 | 12 | 0.1
CC/C=C\C/C=C\C/C=C\C/C=C\C/C=C\CCCC(=O)O [ICOSAPENT] | 13 | 7.1 | 0.5
CC/C=C\C/C=C\C/C=C\C/C=C\CCSCCCC(=O)O | 26 | 3.9 | 0.2
CC/C=C\C/C=C\C/C=C\CC/C=C/CSCCCC(=O)O | 81 | 120 | 1.4
CC/C=C\C/C=C\C/C=C\C/C=C\C/C=C\C/C=C\CCC(=O)O [DOCONEXENT] | 15 | 9.8 | 0.7
CCCCC/C=C\C/C=C\CCCCCCCC(=O)O [LINOLEIC ACID] | 170 | 94 | 0.6
CC/C=C\C/C=C\C/C=C\C/C=C\CCSCC(=O)O | 84 | 160 | 1.9
CCCCCCCC/C=C\CCCCCCCC(=O)O [OLEIC ACID] | > 500 | > 500 | –
CCCCCCCCCCCCCCCC(=O)O [PALMITIC ACID] | > 500 | > 500 | –
